Laboratory results reported in EP2964612B1, “P[…] AND THEIR USE AS FLUORESCENT LABELS” (Illumina Cambridge Limited, priority 2013, dated 2014).

Target: T1, Pol 957 EA (Thermococcus sp., UniProt Q56366)
T1 sequence (Q56366 1-775): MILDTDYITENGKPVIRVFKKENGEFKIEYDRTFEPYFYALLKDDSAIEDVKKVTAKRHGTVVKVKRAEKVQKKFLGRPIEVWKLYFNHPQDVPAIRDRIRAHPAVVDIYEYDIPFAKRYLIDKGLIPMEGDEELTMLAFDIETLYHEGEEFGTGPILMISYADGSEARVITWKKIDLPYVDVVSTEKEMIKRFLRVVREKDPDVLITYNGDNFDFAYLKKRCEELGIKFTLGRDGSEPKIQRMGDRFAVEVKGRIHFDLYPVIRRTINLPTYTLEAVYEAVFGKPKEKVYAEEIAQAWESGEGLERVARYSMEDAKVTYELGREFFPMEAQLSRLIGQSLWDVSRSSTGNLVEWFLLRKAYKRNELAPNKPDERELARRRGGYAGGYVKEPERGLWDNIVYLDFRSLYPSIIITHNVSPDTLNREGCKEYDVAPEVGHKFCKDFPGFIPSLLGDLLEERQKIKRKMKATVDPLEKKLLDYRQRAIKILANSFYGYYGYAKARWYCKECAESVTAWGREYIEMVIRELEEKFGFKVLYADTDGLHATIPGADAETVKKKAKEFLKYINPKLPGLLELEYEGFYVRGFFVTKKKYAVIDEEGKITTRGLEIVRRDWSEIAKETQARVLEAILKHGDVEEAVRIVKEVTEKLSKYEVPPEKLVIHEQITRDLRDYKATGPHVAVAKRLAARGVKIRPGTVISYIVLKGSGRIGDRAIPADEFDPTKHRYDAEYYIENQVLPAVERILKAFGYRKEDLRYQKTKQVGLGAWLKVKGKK
Test: Binding affinity of labelled 3'-azidomethylthymidine triphosphates to the polymerase (Table 2)

With `Cc1cn([C@H]2C[C@H](OCN=[N+]=[N-])[C@@H](COP(=O)(O)OP(=O)(O)OP(=O)(O)O)O2)c(=O)[nH]c1=O` [Dark ffT] the Kd was 550 nM.
